Assay results: the supplement of paper PMC10307832

Experiments:
Experiment in all cases: relative viability (nuclei count vs DMSO), 5 days (fraction); higher = more cells survive
[1] = compound: C(C(=O)C(=O)O)Br [Bromopyruvate] + COc1cccc2cc(-c3nc([C@H]4CC[C@H](C(=O)O)CC4)n4ncnc(N)c34)[nH]c12 [OSI-027] (partner 0.5 µM)
Method in brief: (§1)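 Lung cancer cell lines, seeded in 1536-well plates, were treated the following day by pin tool with a single drug or with five library-drug doses (not always all listed) in √10 steps on top of a fixed anchor-drug dose. Cells were fixed and nuclei stained in one step after 5 days, and nuclei were counted. Relative viability is the nuclei count for treated wells divided by that for vehicle wells, reported as medians of duplicate plates.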

[2] = compound: C(C(=O)C(=O)O)Br [Bromopyruvate] + CS(=O)(=O)N1CCN(Cc2cc3nc(-c4cccc5[nH]ncc45)nc(N4CCOCC4)c3s2)CC1 [Pictilisib] (partner 1 µM)
Method in brief: as §1

[3] = compound: C(C(=O)C(=O)O)Br [Bromopyruvate] + C[C@]1(O)C[C@@H](c2nc(-c3ccc4ccc(-c5ccccc5)nc4c3)c3c(N)nccn32)C1 [Linsitinib] (partner 1 µM)
Method in brief: as §1

[4] = compound: C(C(=O)C(=O)O)Br [Bromopyruvate] + Cc1cc(Nc2cc(N3CCN(C)CC3)nc(Sc3ccc(NC(=O)C4CC4)cc3)n2)n[nH]1 [Tozasertib] (partner 0.1 µM)
Method in brief: as §1

| Cell Line | relative viability ([1]; first compound 1 µM) | relative viability ([1]; first compound 3.162 µM) | relative viability ([1]; first compound 10 µM) | relative viability ([1]; first compound 31.62 µM) | relative viability ([1]; first compound 100 µM) | relative viability ([2]; first compound 1 µM) | relative viability ([2]; first compound 3.162 µM) | relative viability ([2]; first compound 10 µM) | relative viability ([2]; first compound 31.62 µM) | relative viability ([2]; first compound 100 µM) | relative viability ([3]; first compound 1 µM) | relative viability ([3]; first compound 3.162 µM) | relative viability ([3]; first compound 10 µM) | relative viability ([3]; first compound 31.62 µM) | relative viability ([3]; first compound 100 µM) | relative viability ([4]; first compound 1 µM) | relative viability ([4]; first compound 3.162 µM) | relative viability ([4]; first compound 10 µM) | relative viability ([4]; first compound 31.62 µM) | relative viability ([4]; first compound 100 µM) |
| --- | --- | --- | --- | --- | --- | --- | --- | --- | --- | --- | --- | --- | --- | --- | --- | --- | --- | --- | --- | --- |
| LXF-289 | 0.809 | 0.851 | 0.8 | 0.847 | 0.914 | 0.756 | 0.758 | 0.802 | 0.867 | 0.816 | 0.966 | 0.969 | 0.981 | 0.951 | 1.01 | 0.184 | 0.179 | 0.213 | 0.152 | 0.172 |
| NCI-H23 | 0.605 | 0.695 | 0.612 | 0.71 | 0.661 | 0.448 | 0.535 | 0.433 | 0.502 | 0.409 | 0.484 | 0.584 | 0.661 | 0.54 | 0.51 | 0.347 | 0.388 | 0.361 | 0.291 | 0.105 |
| NCI-H322M | 0.515 | 0.58 | 0.576 | 0.523 | 0.599 | 0.464 | 0.536 | 0.502 | 0.529 | 0.56 | 0.869 | 0.913 | 0.981 | 0.908 | 0.891 | 0.433 | 0.546 | 0.495 | 0.461 | 0.484 |
| NCI-H358 | 0.813 | 0.758 | 0.956 | 0.769 | 0.797 | 0.342 | 0.397 | 0.343 | 0.326 | 0.328 | 0.748 | 0.77 | 0.81 | 0.62 | 0.903 | 0.0956 | 0.115 | 0.104 | 0.0945 | 0.0906 |
| NCI-H441 | 0.709 | 0.693 | 0.76 | 0.609 | 0.571 | 0.428 | 0.543 | 0.498 | 0.466 | 0.571 | 0.533 | 0.656 | 0.543 | 0.507 | 0.518 | 0.597 | 0.614 | 0.605 | 0.615 | 0.565 |
| NCI-H460 | 0.588 | 0.82 | 0.91 | 0.661 | 0.728 | 0.483 | 0.315 | 0.419 | 0.358 | 0.349 | 0.801 | 0.832 | 1.09 | 0.717 | 0.744 | 0.432 | 0.485 | 0.426 | 0.424 | 0.335 |
| NCI-H520 | 0.243 | 0.259 | 0.25 | 0.23 | 0.289 | 0.264 | 0.34 | 0.337 | 0.293 | 0.317 | 1.06 | 1.09 | 1.11 | 0.961 | 0.893 | 0.467 | 0.448 | 0.395 | 0.422 | 0.328 |
| NCI-H596 | 0.781 | 0.711 | 0.84 | 0.684 | 0.781 | 0.431 | 0.396 | 0.419 | 0.419 | 0.423 | 0.998 | 0.991 | 1.18 | 1.03 | 1.19 | 0.83 | 0.943 | 1.1 | 0.878 | 0.412 |
| NCI-H647 | 0.618 | 0.744 | 0.689 | 0.653 | 0.633 | 0.433 | 0.421 | 0.393 | 0.474 | 0.455 | 1.03 | 1.48 | 1.55 | 1.15 | 0.806 | 0.289 | 0.221 | 0.29 | 0.298 | 0.389 |
| NCI-H650 | 0.584 | 0.545 | 0.575 | 0.501 | 0.59 | 0.804 | 0.778 | 0.972 | 0.92 | 1.01 | 0.756 | 0.976 | 0.871 | 0.921 | 1.03 | 0.656 | 0.756 | 0.804 | 0.714 | 0.698 |
| NCI-H661 | 0.719 | 0.67 | 0.685 | 0.64 | 0.749 | 0.445 | 0.349 | 0.458 | 0.337 | 0.354 | 0.556 | 0.631 | 0.591 | 0.727 | 0.676 | 0.35 | 0.361 | 0.335 | 0.348 | 0.362 |
| NCI-H727 | 0.644 | 0.624 | 0.682 | 0.55 | 0.638 | 0.359 | 0.417 | 0.604 | 0.389 | 0.339 | 0.307 | 0.495 | 0.296 | 0.291 | 0.283 | 0.593 | 0.745 | 0.644 | 0.591 | 0.535 |
| NCI-H838 | 0.428 | 0.37 | 0.422 | 0.386 | 0.393 | 0.463 | 0.446 | 0.495 | 0.493 | 0.448 | 0.966 | 1.05 | 1.23 | 1.02 | 1.1 | 0.268 | 0.291 | 0.305 | 0.242 | 0.293 |
| NCI-H1355 | 0.462 | 0.455 | 0.372 | 0.425 | 0.498 | 0.43 | 0.438 | 0.466 | 0.577 | 0.422 | 0.778 | 0.772 | 0.914 | 0.873 | 0.866 | 0.529 | 0.577 | 0.516 | 0.548 | 0.574 |
| NCI-H1395 | 0.679 | 0.672 | 0.669 | 0.591 | 0.637 | 0.556 | 0.561 | 0.568 | 0.629 | 0.615 | 1.36 | 1.29 | 1.09 | 1.2 | 1.17 | 0.757 | 0.788 | 0.834 | 0.718 | 0.751 |
| NCI-H1437 | 0.921 | 0.861 | 0.943 | 0.909 | 0.847 | 0.464 | 0.502 | 0.47 | 0.413 | 0.496 | 1.02 | 1.03 | 1.22 | 1.02 | 1.17 | 0.384 | 0.414 | 0.447 | 0.397 | 0.451 |
| NCI-H1651 | 0.746 | 0.704 | 0.799 | 0.694 | 0.63 | 0.516 | 0.539 | 0.69 | 0.594 | 0.549 | 0.876 | 0.98 | 0.902 | 0.885 | 1.07 | 0.634 | 0.718 | 0.665 | 0.701 | 0.652 |
| NCI-H1666 | 0.913 | 0.881 | 0.836 | 0.923 | 0.854 | 0.43 | 0.418 | 0.567 | 0.558 | 0.531 | 0.736 | 0.764 | 0.783 | 0.744 | 0.86 | 0.644 | 0.722 | 0.543 | 0.603 | 0.51 |
| NCI-H1734 | 0.599 | 0.611 | 0.731 | 0.562 | 0.595 | 0.493 | 0.486 | 0.542 | 0.551 | 0.451 | 0.837 | 0.949 | 0.989 | 0.852 | 0.905 | 0.243 | 0.247 | 0.307 | 0.244 | 0.216 |
| NCI-H1755 | 0.77 | 0.773 | 0.729 | 0.777 | 0.726 | 0.484 | 0.512 | 0.448 | 0.467 | 0.456 | 1.01 | 1.03 | 0.984 | 0.984 | 0.985 | 0.59 | 0.568 | 0.495 | 0.702 | 0.693 |
| NCI-H1793 | 0.329 | 0.285 | 0.249 | 0.282 | 0.381 | 0.391 | 0.32 | 0.305 | 0.272 | 0.237 | 0.706 | 0.8 | 1.16 | 0.844 | 1.06 | 0.371 | 0.421 | 0.36 | 0.391 | 0.204 |
| NCI-H1915 | 0.669 | 0.612 | 0.665 | 0.637 | 0.677 | 0.95 | 0.934 | 0.9 | 0.955 | 0.897 | 1.12 | 1.15 | 1.09 | 1.09 | 1.1 | 0.438 | 0.455 | 0.445 | 0.444 | 0.392 |
| NCI-H1944 | 0.462 | 0.459 | 0.49 | 0.415 | 0.464 | 0.353 | 0.354 | 0.352 | 0.315 | 0.365 | 1.27 | 1.31 | 1.19 | 1.12 | 1.22 | 0.224 | 0.266 | 0.243 | 0.283 | 0.273 |
| NCI-H1975 | 0.742 | 0.912 | 0.687 | 0.731 | 0.718 | 0.301 | 0.318 | 0.323 | 0.326 | 0.3 | 0.877 | 1.12 | 1.16 | 0.999 | 0.853 | 0.733 | 0.811 | 0.806 | 0.729 | 0.646 |
| NCI-H1993 | 0.623 | 0.513 | 0.525 | 0.549 | 0.539 | 0.827 | 0.729 | 0.895 | 0.935 | 0.774 | 0.739 | 0.678 | 0.707 | 0.717 | 0.7 | 0.626 | 0.629 | 0.697 | 0.578 | 0.598 |
| NCI-H2009 | 0.6 | 0.66 | 0.669 | 0.545 | 0.305 | 0.764 | 0.831 | 0.742 | 0.709 | 0.613 | 1.16 | 1.25 | 1.22 | 1.1 | 0.97 | 0.743 | 0.78 | 0.767 | 0.723 | 0.444 |
